# Results: ChEMBL document CHEMBL1629637, “In vitro activities of tigecycline, minocycline, and colistin-tigecycline combination against multi- and pandrug-resistant clinical isolates of Acinetobacter baumannii group” (Antimicrob Agents Chemother, 2009)
# Experiments:
# Acinetobacter baumannii [1] = experiment: Antibacterial activity against colistin-susceptible Acinetobacter baumannii clinical isolates by broth microdilution method; type: functional
# Acinetobacter baumannii [2] = experiment: Antibacterial activity against colistin-resistant Acinetobacter baumannii clinical isolates by broth microdilution method; type: functional
# [3] = Cmax in human serum at […], iv bolus dose followed by dose regimen of […] every 12 hrs; type: ADME, organism-based; set-up: route intravenous
# Acinetobacter baumannii [4] = experiment: Antibacterial activity against pandrug-resistant Acinetobacter baumannii clinical isolates by broth microdilution method; type: functional
# Acinetobacter baumannii [5] = experiment: Antibacterial activity against extensively drug-resistant Acinetobacter baumannii clinical isolates by broth microdilution method; type: functional
# Acinetobacter baumannii [6] = experiment: Antibacterial activity against imipenem-susceptible Acinetobacter baumannii clinical isolates by broth microdilution method; type: functional
# Acinetobacter baumannii [7] = experiment: Antibacterial activity against colistin-susceptible Acinetobacter baumannii clinical isolates assessed as percent susceptible isolates by broth microdilution method; type: functional
# Acinetobacter baumannii [8] = experiment: Antibacterial activity against colistin-resistant Acinetobacter baumannii clinical isolates assessed as percent susceptible isolates by broth microdilution method; type: functional
# Acinetobacter baumannii [9] = experiment: Antibacterial activity against all antibiotic-resistant Acinetobacter baumannii clinical isolates assessed as percent susceptible isolates by broth microdilution method; type: functional
# Acinetobacter baumannii [10] = experiment: Antibacterial activity against extensively drug-resistant Acinetobacter baumannii clinical isolates assessed as percent susceptible isolates by broth microdilution method; type: functional
# Acinetobacter baumannii [11] = experiment: Antibacterial activity against imipenem-susceptible Acinetobacter baumannii clinical isolates assessed as percent susceptible isolates by broth microdilution method; type: functional
# [12] = Acinetobacter baumannii, read-out: MIC90
Structure (SMILES),MIC50 (Acinetobacter baumannii [1]),MIC90 (Acinetobacter baumannii [2]; [12]),Cmax [3],MIC50 (Acinetobacter baumannii [4]),MIC90 (Acinetobacter baumannii [4]),MIC50 (Acinetobacter baumannii [5]),MIC90 (Acinetobacter baumannii [5]),MIC50 (Acinetobacter baumannii [6]),MIC90 (Acinetobacter baumannii [6]),MIC90 (Acinetobacter baumannii [2]),Activity (Acinetobacter baumannii [7]),Activity (Acinetobacter baumannii [8]),MIC50 (Acinetobacter baumannii [9]),MIC90 (Acinetobacter baumannii [9]),MIC50 (Acinetobacter baumannii [10]),MIC90 (Acinetobacter baumannii [10]),MIC50 (Acinetobacter baumannii [11]),MIC90 (Acinetobacter baumannii [11])
CN(C)c1cc(NC(=O)CNC(C)(C)C)c(O)c2c1C[C@H]1C[C@H]3[C@H](N(C)C)C(O)=C(C(N)=O)C(=O)[C@@]3(O)C(O)=C1C2=O [TIGECYCLINE],1 µg/mL,2 µg/mL,630 ng/mL,1 µg/mL,2 µg/mL,1 µg/mL,2 µg/mL,1 µg/mL,2 µg/mL,–,–,–,–,–,–,–,–,–
CN(C)c1ccc(O)c2c1C[C@H]1C[C@H]3[C@H](N(C)C)C(O)=C(C(N)=O)C(=O)[C@@]3(O)C(O)=C1C2=O [MINOCYCLINE],8 µg/mL,16 µg/mL,–,–,–,–,–,–,–,8 µg/mL,18%,49.4%,8 µg/mL,16 µg/mL,8 µg/mL,16 µg/mL,4 µg/mL,8 µg/mL
